Laboratory results from EP4603105A1, “PHARMACEUTICAL COMPOSITION CONTAINING CYCLIC COMPOUND HAVING SELECTIVE KRAS INHIBITORY EFFECT AGAINST HRAS AND NRAS” (CHUGAI SEIYAKU KABUSHIKI KAISHA, priority 2022, dated 2024).
pIC50, pKd: −log10 of the molar value. Where a SMILES comes first, the peptide text is derived from it. Bridges are numbered along the chain shown (N, C = ends). [ ]: non-standard residue; d: D form. The star is where a group is joined. hPhe(3-Cl-4-CF3) = N[C@@H](CCc1ccc(C(F)(F)F)c(Cl)c1)C(=O)O; NPrPhe(4-CF3) = CCCN[C@@H](Cc1ccc(C(F)(F)F)cc1)C(=O)O; NMeGly(cPent) = CN[C@H](C(=O)O)C1CCCC1; NMeD = CN[C@@H](CC(=O)O)C(=O)O; NMeL = CN[C@@H](CC(C)C)C(=O)O; NMeNva = CCC[C@H](NC)C(=O)O; Morpholide = C1CN(*)CCO1; Ac4c = NC1(C(=O)O)CCC1; NPrGly = CCCNCC(=O)O; NEtG = CCNCC(=O)O; Sar = CNCC(=O)O

Key:
[1] = system: human lung cancer strain NCI-H441; type: cell-based
Method in brief: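 Proliferation was scored by […] measured after the reagent was added to cultures kept at 37°C in 5% carbon dioxide.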

HRAS wild-type protein = HRAS wild-type protein (Homo sapiens, UniProt P01112); experiment: Binding to HRAS by surface plasmon resonance (SPR), KD and KD ratio to KRAS; settings: ratio of the KD value with respect to HRAS wild-type protein to the KD value with respect to KRAS
Sequence of HRAS wild-type protein (P01112 whole entry): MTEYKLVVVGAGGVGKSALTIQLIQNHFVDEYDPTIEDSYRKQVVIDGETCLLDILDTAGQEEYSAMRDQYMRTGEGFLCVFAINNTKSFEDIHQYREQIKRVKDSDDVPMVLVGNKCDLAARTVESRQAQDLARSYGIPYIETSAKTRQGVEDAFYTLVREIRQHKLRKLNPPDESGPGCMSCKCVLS
Method in brief: (§1)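 SPR, 30°C: Avi-biotin RAS·GDP captured via Biotin CAPture (~100–300 RU); running buffer HBS pH 7.4, 1 mM DTT, 10 mM MgCl2, 0.01% Tween 20, 10 µM GDP, 4% DMSO. Single-cycle kinetics, 100 µL/min, 75 s injections; 1:1 model → KD.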

[2] = target: GDP-bound KRAS wild-type protein (Homo sapiens, UniProt P01116); experiment: Binding to KRAS by surface plasmon resonance (SPR), dissociation constant KD; settings: Single Cycle Kinetics, 1:1 binding model
Sequence of GDP-bound KRAS wild-type protein (P01116 1-188 isoform P01116-2): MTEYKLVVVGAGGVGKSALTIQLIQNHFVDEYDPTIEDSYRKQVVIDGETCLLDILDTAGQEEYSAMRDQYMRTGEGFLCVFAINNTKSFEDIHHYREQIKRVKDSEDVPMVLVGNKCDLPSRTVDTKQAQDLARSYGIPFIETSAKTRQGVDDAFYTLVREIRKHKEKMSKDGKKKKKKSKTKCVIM
Method in brief: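 Recombinant RAS proteins bearing a biotinylated Avi tag and loaded with GDP served as the captured ligand, recaptured fresh every cycle. Binding responses were referenced to an uncoated surface and a buffer-only blank cycle. Dissociation constants were obtained by 1:1 model fitting at 30°C.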

[3] = target: GDP-bound NRAS wild-type protein (Homo sapiens, UniProt P01111); experiment: Binding to NRAS by surface plasmon resonance (SPR), KD and KD ratio to KRAS; settings: ratio of the KD value with respect to GDP-bound NRAS wild-type protein to the KD value with respect to KRAS
Sequence of GDP-bound NRAS wild-type protein (P01111 whole entry): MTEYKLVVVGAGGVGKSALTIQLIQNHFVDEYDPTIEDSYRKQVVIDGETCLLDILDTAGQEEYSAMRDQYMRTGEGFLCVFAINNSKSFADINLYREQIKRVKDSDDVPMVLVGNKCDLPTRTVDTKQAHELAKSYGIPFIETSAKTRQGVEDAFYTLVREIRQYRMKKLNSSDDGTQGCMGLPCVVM
Method in brief: as §1

Row | SMILES | pIC50 [1] | HRAS /KRAS (HRAS wild-type protein) | pKd [2] | NRAS /KRAS [3]
1 | CCCN(C)C(=O)[C@@H]1CC(=O)N(C)[C@@H](CC(C)C)C(=O)N[C@@H]([C@@H](C)CC)C(=O)N(C)CC(=O)N(C)[C@H]2C/C=C\CCN(C2=O)[C@@H](Cc2ccc(C(F)(F)F)cc2)C(=O)N(C)CC(=O)N[C@@H](CCc2cc(F)c(C(F)(F)F)c(F)c2)C(=O)N2C[C@H](OCC)C[C@H]2C(=O)NC2(COC2)C(=O)N(C)[C@@H](C2CCCC2)C(=O)N1C [PP1938] | 7.46 | A (a compound having 10 or more and less than 20 is denoted as A) | 9.47 | AA (a compound having 20 or more is denoted as AA)
2 | CCCN1C(=O)CN(CC)C(=O)CN(C)C(=O)[C@H]([C@@H](C)CC)NC(=O)[C@H](CC(C)C)N(C)C(=O)C[C@@H](C(=O)N2CCOCC2)N(C)C(=O)[C@H](C2CCCC2)N(C)C(=O)C2(CCC2)NC(=O)[C@@H]2CCCN2C(=O)[C@H](CCc2ccc(C(F)(F)F)c(Cl)c2)NC(=O)CN(C)C(=O)[C@@H]1Cc1ccc(C(F)(F)F)cc1 [PP1948] ([NMeL]I[Sar][NEtG][NPrPhe(4-CF3)][Sar][hPhe(3-Cl-4-CF3)]P[Ac4c][NMeGly(cPent)][NMeD]-Morpholide; lactam N-11) | 7.79 | C (A compound having a KD ratio of 0.1 or more and less than 3 is denoted as C) | 9.39 | C (A compound having a KD ratio of 0.1 or more and less than 3 is denoted as C)
3 | CCC[C@H]1C(=O)N[C@@H]([C@@H](C)CC)C(=O)N(C)CC(=O)N(CCC)CC(=O)N(CCC)[C@@H](Cc2ccc(C(F)(F)F)cc2)C(=O)N(C)CC(=O)N[C@@H](CCc2ccc(C(F)(F)F)c(Cl)c2)C(=O)N2CCC[C@H]2C(=O)NC2(CCC2)C(=O)N(C)[C@@H](C2CCCC2)C(=O)N(C)[C@H](C(=O)N2CCOCC2)CC(=O)N1C [PP1949] ([NMeNva]I[Sar][NPrGly][NPrPhe(4-CF3)][Sar][hPhe(3-Cl-4-CF3)]P[Ac4c][NMeGly(cPent)][NMeD]-Morpholide; lactam N-11) | 8.03 | C (A compound having a KD ratio of 0.1 or more and less than 3 is denoted as C) | 9.04 | C (A compound having a KD ratio of 0.1 or more and less than 3 is denoted as C)
4 | CC[C@H](C)[C@@H]1NC(=O)[C@H](C2CC2)N(C)C(=O)C[C@@H](C(=O)N(C)CC)N(C)C(=O)[C@H](C2CCCC2)N(C)C(=O)C2(CC(C)(C)C2)NC(=O)[C@@H]2C[C@H](C)CN2C(=O)[C@H](CCc2cc(F)c(C(F)(F)F)c(F)c2)NC(=O)CN(C)C(=O)[C@H](Cc2ccc(C(F)(F)F)cc2)N2CC/C=C\C[C@@H](C2=O)N(C)C(=O)CN(C)C1=O [PP1980] | 7.52 | B (a compound having 3 or more and less than 10 is denoted as B) | 9.44 | A (a compound having 10 or more and less than 20 is denoted as A)
5 | CCCOC[C@H]1C(=O)N[C@@H]([C@@H](C)CC)C(=O)N(C)CC(=O)N(C)[C@H]2C/C=C\CCN(C2=O)[C@@H](Cc2ccc(C(F)(F)F)cc2)C(=O)N(C)CC(=O)N[C@@H](CCc2ccc(C(F)(F)F)c(OC)c2)C(=O)N2C[C@@H](C)C[C@H]2C(=O)NC2(CC(C)(C)C2)C(=O)N(C)[C@@H](C2CCCC2)C(=O)N(C)[C@H](C(=O)N(C)C)CC(=O)N1C [PP1997] | 7.85 | B (a compound having 3 or more and less than 10 is denoted as B) | 10.01 | A (a compound having 10 or more and less than 20 is denoted as A)
6 | CCCN(C)C(=O)[C@@H]1CC(=O)N(C)[C@@H](C2CCC2)C(=O)N[C@@H]([C@@H](C)CC)C(=O)N(C)CC(=O)N(C)[C@H]2C/C=C\CCN(C2=O)[C@@H](Cc2ccc(C(F)(F)F)cc2)C(=O)N(C)CC(=O)N[C@@H](CCc2cc(F)c(C(F)(F)F)c(F)c2)C(=O)N2C[C@H](OCC)C[C@H]2C(=O)NC2(CCC2)C(=O)N(C)[C@@H](C2CCCC2)C(=O)N1C [PP1998] | 7.79 | B (a compound having 3 or more and less than 10 is denoted as B) | 9.77 | A (a compound having 10 or more and less than 20 is denoted as A)
7 | CCCOC[C@H]1C(=O)N[C@@H]([C@@H](C)CC)C(=O)N(C)CC(=O)N(C)[C@H]2C/C=C\CCN(C2=O)[C@@H](Cc2ccc(C(F)(F)F)cc2)C(=O)N(C)CC(=O)N[C@@H](CCc2cc(F)c(C(F)(F)F)c(F)c2)C(=O)N2C[C@@H](C)C[C@H]2C(=O)NC2(CCC2)C(=O)N(C)[C@@H](C2CCCC2)C(=O)N(C)[C@H](C(=O)N(C)CCC)CC(=O)N1C [PP2008] | 7.82 | A (a compound having 10 or more and less than 20 is denoted as A) | 9.89 | A (a compound having 10 or more and less than 20 is denoted as A)
8 | CCCOC[C@H]1C(=O)N[C@@H]([C@@H](C)CC)C(=O)N(C)CC(=O)N(C)[C@H]2C/C=C\CCN(C2=O)[C@@H](Cc2ccc(C(F)(F)F)cc2)C(=O)N(C)CC(=O)N[C@@H](CCc2ccc(C(F)(F)F)c(OC)c2)C(=O)N2C[C@H](OCC)C[C@H]2C(=O)NC2(CCC2)C(=O)N(C)[C@@H](C2CCCC2)C(=O)N(C)[C@H](C(=O)N(C)CCC)CC(=O)N1C [PP2017] | 8.60 | A (a compound having 10 or more and less than 20 is denoted as A) | 10.03 | A (a compound having 10 or more and less than 20 is denoted as A)
9 | CCO[C@@H]1C[C@H]2C(=O)NC3(CCC3)C(=O)N(C)[C@@H](C3CCCC3)C(=O)N(C)[C@H](C(=O)N(C)CC)CC(=O)N(C)[C@@H](C3CCC3)C(=O)N[C@@H]([C@@H](C)CC)C(=O)N(C)CC(=O)N(C)[C@H]3C/C=C\CCN(C3=O)[C@@H](Cc3ccc(C(F)(F)F)cc3)C(=O)N(C)CC(=O)N[C@@H](CCc3ccc(C(F)(F)F)c(OC)c3)C(=O)N2C1 [PP2022] | 8.57 | A (a compound having 10 or more and less than 20 is denoted as A) | 9.96 | A (a compound having 10 or more and less than 20 is denoted as A)
10 | CCCN(C)C(=O)[C@@H]1CC(=O)N(C)[C@@H](C2CCC2)C(=O)N[C@@H]([C@@H](C)CC)C(=O)N(C)CC(=O)N(C)[C@H]2C/C=C\CCN(C2=O)[C@@H](Cc2ccc(C(F)(F)F)cc2)C(=O)N(C)CC(=O)N[C@@H](CCc2ccc(C(F)(F)F)c(OC)c2)C(=O)N2C[C@H](OCC)C[C@H]2C(=O)NC2(CCC2)C(=O)N(C)[C@@H](C2CCCC2)C(=O)N1C [PP2023] | 7.98 | B (a compound having 3 or more and less than 10 is denoted as B) | 9.96 | A (a compound having 10 or more and less than 20 is denoted as A)
11 | CCCN(C)C(=O)[C@@H]1CC(=O)N(C)[C@@H](CC(F)F)C(=O)N[C@@H]([C@@H](C)CC)C(=O)N(C)CC(=O)N(C)[C@H]2C/C=C\CCN(C2=O)[C@@H](Cc2ccc(C(F)(F)F)cc2)C(=O)N(C)CC(=O)N[C@@H](CCc2ccc(C(F)(F)F)c(OC)c2)C(=O)N2C[C@@H](C)C[C@H]2C(=O)NC2(CCC2)C(=O)N(C)[C@@H](C2CCCC2)C(=O)N1C [PP2024] | 8.00 | B (a compound having 3 or more and less than 10 is denoted as B) | 10.09 | A (a compound having 10 or more and less than 20 is denoted as A)
12 | CCCN(C)C(=O)[C@@H]1CC(=O)N(C)[C@@H](COCC)C(=O)N[C@@H]([C@@H](C)CC)C(=O)N(C)CC(=O)N(C)[C@H]2C/C=C\CCN(C2=O)[C@@H](Cc2ccc(C(F)(F)F)cc2)C(=O)N(C)CC(=O)N[C@@H](CCc2ccc(C(F)(F)F)c(OC)c2)C(=O)N2C[C@@H](C)C[C@H]2C(=O)NC2(CCC2)C(=O)N(C)[C@@H](C2CCCC2)C(=O)N1C [PP2025] | 7.87 | B (a compound having 3 or more and less than 10 is denoted as B) | 10.21 | A (a compound having 10 or more and less than 20 is denoted as A)
13 | CCCOC[C@H]1C(=O)N[C@@H]([C@@H](C)CC)C(=O)N(C)CC(=O)N(C)[C@H]2C/C=C\CCN(C2=O)[C@@H](Cc2ccc(C(F)(F)F)cc2)C(=O)N(C)CC(=O)N[C@@H](CCc2ccc(C(F)(F)F)c(OC)c2)C(=O)N2C[C@@H](C)C[C@H]2C(=O)NC2(CCC2)C(=O)N(C)[C@@H](C2CCCC2)C(=O)N(C)[C@H](C(=O)N(C)CC)CC(=O)N1C [PP2027] | 7.85 | B (a compound having 3 or more and less than 10 is denoted as B) | 9.96 | A (a compound having 10 or more and less than 20 is denoted as A)
14 | CCCOC[C@H]1C(=O)N[C@@H]([C@@H](C)CC)C(=O)N(C)CC(=O)N(C)[C@H]2C/C=C\CCN(C2=O)[C@@H](Cc2ccc(C(F)(F)F)cc2)C(=O)N(C)CC(=O)N[C@@H](CCc2ccc(C(F)(F)F)c(OC)c2)C(=O)N2C[C@@H](C)C[C@H]2C(=O)NC2(CCC2)C(=O)N(C)[C@@H](C2CCCC2)C(=O)N(C)[C@H](C(=O)N(C)CCC)CC(=O)N1C [PP2028] | 7.76 | B (a compound having 3 or more and less than 10 is denoted as B) | 9.96 | A (a compound having 10 or more and less than 20 is denoted as A)
15 | CCCN(C)C(=O)[C@@H]1CC(=O)N(C)[C@@H](CCOC)C(=O)N[C@@H]([C@@H](C)CC)C(=O)N(C)CC(=O)N(C)[C@H]2C/C=C\CCN(C2=O)[C@@H](Cc2ccc(C(F)(F)F)cc2)C(=O)N(C)CC(=O)N[C@@H](CCc2ccc(C(F)(F)F)c(OC)c2)C(=O)N2C[C@@H](C)C[C@H]2C(=O)NC2(CCC2)C(=O)N(C)[C@@H](C2CCCC2)C(=O)N1C [PP2029] | 7.72 | B (a compound having 3 or more and less than 10 is denoted as B) | 10.16 | A (a compound having 10 or more and less than 20 is denoted as A)
